# Reference: patent publication US6803371B2, “Purine inhibitors of protein kinases, G proteins and polymerases” (The Regents of the University of California, priority 1997, dated 2004)
# Molecular target: erk1 (Homo sapiens, UniProt P27361)
# Assay: erk1 kinase inhibition
# Type: biochemical
# Settings: read-out: IC50 (additional kinases) erk1
# erk1, sequence (P27361 whole entry, species assumed): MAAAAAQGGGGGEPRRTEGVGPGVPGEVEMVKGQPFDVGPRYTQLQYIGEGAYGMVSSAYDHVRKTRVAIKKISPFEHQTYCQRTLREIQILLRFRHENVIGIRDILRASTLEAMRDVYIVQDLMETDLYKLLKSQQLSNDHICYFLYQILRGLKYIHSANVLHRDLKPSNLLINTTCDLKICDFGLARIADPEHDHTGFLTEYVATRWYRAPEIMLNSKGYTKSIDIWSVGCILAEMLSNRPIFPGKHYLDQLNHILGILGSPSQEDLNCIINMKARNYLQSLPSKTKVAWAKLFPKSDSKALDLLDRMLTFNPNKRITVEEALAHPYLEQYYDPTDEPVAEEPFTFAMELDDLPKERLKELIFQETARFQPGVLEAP
row,IC50 [nM],SMILES
1,> 10000,CC[C@H](CO)Nc1nc(NCc2ccc(OC)cc2)c2ncn(C(C)C)c2n1 [NG-33]
2,50000,COc1ccc(CNc2nc(N(CC(C)O)CC(C)O)nc3c2ncn3C(C)C)cc1 (stereo not shown) [NG-16]
3,> 10000,COc1ccc(CNc2nc(N[C@@H](CO)CC(C)C)nc3c2ncn3C(C)C)cc1 [NG-36]

# Molecular target: cdc2/cyclinB
# Assay: cdc2/cyclinB kinase inhibition
# Type: biochemical
# Settings: not given
row,IC50 [nM],SMILES
1,10000,CC(C)n1cnc2c(Nc3ccccc3C(F)(F)F)nc(NCCO)nc21 [NG-53]
2,2700,CC(C)n1cnc2c(Nc3ccc(Cl)cc3Cl)nc(NCCO)nc21 [NG-54]
3,220,CC(C)n1cnc2c(Nc3cccc(Cl)c3)nc(NCCO)nc21 [NG-52]
4,400,CC(C)n1cnc2c(Nc3cccc(F)c3)nc(NCCO)nc21 [NG-65]
5,430,CC(C)n1cnc2c(Nc3ccc4ccccc4c3)nc(NCCO)nc21 [NG-47]
6,420,CC(C)n1cnc2c(Nc3cccc(C(F)(F)F)c3)nc(NCCO)nc21 [NG-51]
7,4300,CC(C)n1cnc2c(Nc3ccccc3)nc(NCCO)nc21 [NG-42]
8,4300,CC(C)n1cnc2c(Nc3ccccc3Cl)nc(NCCO)nc21 [NG-43]
9,270,CC(C)n1cnc2c(Nc3cccc(Br)c3)nc(NCCO)nc21 [NG-45]
10,9000,COc1ccccc1Nc1nc(NCCO)nc2c1ncn2C(C)C [NG-46]

# Continued, compound first:
row,SMILES,IC50 [nM]
1,COc1ccc(CNc2nc(N(CCO)Cc3ccccc3)nc3c2ncn3C(C)C)cc1 [NG-49],2800
2,CC(C)n1cnc2c(Nc3cccc(Cl)c3)nc(N[C@H](CO)C(C)(C)C)nc21 [NG-61],2300
3,CC(C)n1cnc2c(Nc3cccc(Cl)c3)nc(N[C@H](CO)c3ccccc3)nc21 [NG-59],800
4,COc1ccc(CNc2nc(N(CC(C)O)CC(C)O)nc3c2ncn3C(C)C)cc1 (stereo not shown) [NG-16],240
5,COc1ccc(CNc2nc(N[C@@H](CO)CC(C)C)nc3c2ncn3C(C)C)cc1 [NG-36],100
6,CCC(C)[C@@H](CO)Nc1nc(Nc2cccc(Cl)c2)c2ncn(C(C)C)c2n1 (stereo partly shown) [NG-62],500
7,COc1ccc(CNc2nc(NCC(O)c3ccccc3)nc3c2ncn3C(C)C)cc1 (stereo not shown) [NG-50],2800
8,CC(C)[C@H](CO)Nc1nc(Nc2ccc(Cl)c(C(=O)O)c2)c2ncn(C(C)C)c2n1 [NG-96],~30
9,CC(C)[C@H](CO)Nc1nc(Nc2cc(N)cc(Cl)c2)c2ncn(C(C)C)c2n1 [NG-97],30
10,CC(C)[C@H](CO)Nc1nc(Nc2ccc(Cl)c(N)c2)c2ncn(C(C)C)c2n1 [NG-98],30
11,CC(C)C(CO)Nc1nc(Nc2cc(Cl)cc(Cl)c2)c2ncn(C(C)C)c2n1 (stereo not shown) [NG-57],400
12,CC(C)[C@H](CO)Nc1nc(Nc2ccc(O)c(C(=O)O)c2)c2ncn(C(C)C)c2n1 [NG-94],~100
